Like-named read-outs stand apart in the source and are kept apart here.

The results in this text go back to patent US10954287B2, “Ras binding peptides and methods of use” (Ra Pharmaceuticals, Inc., priority 2016, dated 2021).

One series has as its target T1, H-Ras (Homo sapiens, UniProt P01112, G12V).
T1 construct: made in house; host or cells: E. coli BL21 (DE3)
Kind of series: Differential scanning fluorimetry (DSF). To be noted: Ras 5 μM, peptide 20 μM, FIG. 8A. The class given is binding. As to the method: Differential scanning fluorimetry (DSF) is based on denaturation of the protein in the absence or presence of a ligand, exposing hydrophobic residues that can be detected with high sensitivity with a fluorescent dye. […] DSF was performed on a CFX 96-well plate, real-time PCR instrument (Bio-Rad, Hercules, Calif.) according to Nettleship et al. [Nettleship, J. E., Brown, J., Groves, M. R., and Geerlof, A. (2008) Methods for protein characterization by mass spectrometry, thermal shift (ThermoFluor) assay, and multiangle or static light scattering. Methods Mol. Biol. 426: 299-318), the contents of which are incorporated herein by reference in their entirety]. SYPRO orange was purchased from Life Technologies (Carlsbad, Calif.). After incubation of Ras (5 μM) and peptide (20 μM) at room temperature for 15 minutes in 20 mM Tris-HCl (pH 8), 150 mM NaCl, 1 mM MgCl2, 2 mM DTT, and 0.2% dimethyl sulfoxide, SYPRO orange was added to the final concentration of 10× (original stock at 5000×). The mixture was subsequently heated in Bio-Rad CFX 96 PCR instrument from 25 to 95° C. in increments of 0.3° C./10 s. Fluorescence intensity was measured using excitation and emission wavelengths of 483 and 610 nm, respectively. Changes in protein thermal stability (ATm) upon peptide binding were analyzed by using Bio-Rad CFX Manager Software provided by the manufacturer.
Background: In DSF a fluorescence change marks the thermal transition of the protein.

The nature of series [1]: Compound stability in rat plasma. In kind it is in vitro ADME. To be noted: serum (method text and assay name say plasma), 37° C., pH 7.4. As to the method: Compounds were assayed for stability in mouse and rat plasma under the following conditions. Plasma was adjusted to pH 7.4. DMSO stocks at 10 mM concentration were prepared for the test compounds. Aliquots of the DMSO solutions were dosed into 1 mL of plasma, which had been pre-warmed to 37° C., at a final test compound concentration of 10 μM. The vials were kept in a benchtop Thermomixer® (Eppendorf, Hauppauge, N.Y.) for the duration of the experiment. Aliquots (100 μL) were taken at each timepoint and added to a 96-well plate that had been pre-filled with 300 μL of an acetonitrile solution containing mixture of the internal standards (metoprolol, propranalol and warfarin each at 500 ng/mL). Samples were stored at 4° C. until the end of the experiment. After the final timepoint was sampled, the plate was mixed and then centrifuged at 3,000 rpm for 10 minutes. Aliquots of the supernatant were removed and analyzed by LC-HRAMS.

In series [2] the test system is GMPPNP-loaded H-Ras or GTP-loaded K-Ras. Put plainly: Fluorescence polarization competition assay with TAMRA-labeled probe R4007. The class given is binding, human. To be noted: 120 nM Ras. In outline:
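120 nM GMPPNP-loaded H-Ras or GTP-loaded K-Ras was preincubated with 30 nM TAMRA-labeled R4007 probe for 20 min at room temperature in Tris pH 7.5 buffer with MgCl2, EDTA and Triton X-100. Serially diluted competitor was then added for 60 min. Polarization was read at 535/595 nm, with Ki from a one-site Ki fit and IC50 from probe displacement.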
On the technique in general: In fluorescence polarisation assays a small probe gives low polarisation when free and higher when bound to something large.

The target of the next series is T2, K-Ras G12D (Homo sapiens, UniProt P01116, G12D).
T2 construct: For K-Ras, the construct was full-length; made in house
Kind of series: Surface plasmon resonance (SPR) binding to immobilized K-Ras. To be noted: for Kd / kd / kon: 25° C.; for kon: read-out: ka. As to the method:
Surface Plasmon Resonance (SPR) experiments were conducted at 25° C. using the ProteOn XPR36 system from BioRad Laboratories, Inc (Hercules, Calif.). […] Kinetic characterization of cyclomimetic binding was performed to determine kon, koff, and Kd. […] was co-injected with RAF-RBD to evaluate competitive binding. Data analysis was performed using BioRad ProteOn Manager software.
A general note: Surface plasmon resonance follows binding to a sensor surface in real time, without labels.

Turning to `CCC[C@H](NC(C)=O)C(=O)N[C@H]1CSCc2cccc(c2)CSC[C@@H](C(N)=O)NC(=O)CN(C)C(=O)[C@H](Cc2ccc(F)cc2)N(C)C(=O)[C@H](Cc2ccc(O)cc2)NC(=O)[C@H](Cc2c[nH]c3ncccc23)NC(=O)[C@H](c2ccccc2)NC(=O)[C@H](C)N(C)C(=O)[C@H](Cc2cnc[nH]2)NC(=O)[C@H](CCCCN)NC(=O)[C@H](C(C)(C)C)NC(=O)[C@H](Cc2ccc(O)cc2)NC1=O` (relative stereo) [Compound R4000, ACE-NVA-CYS*-TYR-TBG-LYS-HIS-NMA-PHG-7AW-TYR-MFF-SAR-CYS*-NH2], the “Δ Tm” value on H-Ras was “+11 °C”. For the same compound, in series [1], the half-life (as a rule, the time in which the quantity being followed falls by half) at 10 μM was 2.1 h. For the same compound, the IC50 in series [2] (30 nM R4007, FIG. 7B, read-out: half-maximal inhibitory concentration (IC50) for displacement of R4007) was 20 nM. Also, the IC50 in series [2] (30 nM probe R4007, 60 minutes at room temperature, read-out: Probe displacement (nM IC50)) was determined as 28.6 nM. On K-Ras G12D (K-Ras G12D loaded with GDP), the Kd (commonly the constant that tells how readily two partners part at equilibrium) was determined as 0.0044 µM, the kd came to 0.003 s⁻¹ and the kon came out at 680000 M⁻¹ s⁻¹. For the same compound, at K-Ras G12D (K-Ras G12D loaded with GMPPNP), binding was characterised by a dissociation constant (Kd) of 0.0028 µM, the kd stood at 0.0016 s⁻¹ and the kon was 570000 M⁻¹ s⁻¹. For the same compound, on K-Ras G12D (R4000 co-injected with RAF-RBD, FIG. 7A), the “competitive binding on co-injection with RAF-RBD” value was “additive signals”.
